Consider eight compounds from US5731345A, “Seco-D steroids active on the cardiovascular system and pharmaceutical compositions containing same” (Sigma-Tau Industrie Farmaceutiche Riunite S.p.A, priority 1995, dated 1998).

Structures are written as SMILES. Where two headings read alike, the source gives them in different places.

In assay [1] the target is T1, Na^+, K^+ -ATPase (Canis lupus familiaris, UniProt P50997).
T1 construct: from tissue
Description: displacement of specific ^3 H-oubain binding from purified Na^+, K^+ -ATPase receptor. From the text:
(§1) To test the affinity for the receptor site of the Na^+, K^+ -ATPase and the agonist or inhibitory activity on the enzyme, the following tests were used:
a) displacement of the specific ^3 H-oubain binding from the Na^+, K^+ -ATPase receptor purified according to Jorghensen (Jorghensen P., BBA, 1974, 356, 36) and Erdamnn (Erdmann E. et al., Arzneim. Forsh, 1984, 34, 1314);

For assay [2], the target named is Na^+, K^+ -ATPase. The assay is classed as biochemical. The note with it: purified Na^+, hydrolysis of ^32 P-ATP.
Excerpt: as §1
b) inhibition of the activity of the purified Na^+, K^+ -ATPase measured as % of hydrolysis of ^32 P-ATP in the presence and in the absence of the tested compound (Doucet A. et al., Am. J. Physiol., 1986, 251, F851).

In assay [3] the test system is spontaneous hypertensive rats (MHS). Kind of assay: prevention of development of hypertension in pre-hypertensive rats, indirect tail-cuff plethysmography (SBP and HR). The assay is classed as in vivo, rat. The note with it: 5 week treatment, 20 mg/kg/os daily in 0.5% w/v Methocel; for SBP: controls 172+/-5.0; for HR: controls 380+/-6.3. As to the method: Systolic blood pressure (SBP) and heart rate (HR) were measured by an indirect tail-cuff plethysmographic method in […] pre-hypertensive male rats, (MHS or SHR), i.e. before hypertension onset so as to register the basal value of SBP. The rats were then subdivided in groups of 7 animals each and the groups were divided in control and treated group. The compound, suspended in 0.5% (w/v) Methocel, was orally administered daily for at least five weeks. The control group received only Methocel.
SBP and HR were measured weekly, 6 and 24 hours after the treatment.
After five weeks of treatment, when the hypertension was fully developed in the control group ([…]) a one-week wash-out was conducted in order to verify whether SBP would remain low or restored to the basal values of the control group.

The compound `CN(C)CCO/N=C\C[C@H](C1=CC(=O)OC1)[C@@]1(C)CC[C@H]2[C@@H](CC[C@@H]3C[C@@H](O)CC[C@@]32C)C1=O` [Comp. I-l, 3β-hydroxy-14-oxo-14,15-seco-5β-card-20(22)-enolide-15(2-dimethylaminoethoxy-(Z)-imino)] showed an IC50 at Na^+, K^+ -ATPase [1] of 3980 nM. Further, the “Inhibitory activity -log IC50” value on Na^+, K^+ -ATPase [2] is on record as 4.2.
The matching figures for `CN(C)CCO/N=C/C[C@H](C1=CC(=O)OC1)[C@@]1(C)CC[C@H]2[C@@H](CC[C@@H]3C[C@@H](O)CC[C@@]32C)C1=O` [Comp. I-i, 3β-hydroxy-14-oxo-14,15-seco-5β-card-20(22)-enolide-15-(2-dimethylaminoethoxy-(E)-imino)]: 2510 nM and 4.0.
In the case of `CC[C@H](c1ccoc1)[C@@]1(C)CC[C@H]2[C@@H](CC[C@@H]3C[C@@H](O)CC[C@@]32C)[C@@H]1O` [Comp. I-a, 17β-(3-furyl)-14,15-seco-5βandrostan-3β,14β-diol], in assay [3], the SBP was 155+/-4.3 mm Hg and the HR is listed as 370+/-10.5 beats/min.
On to `CC[C@H](C1=CC(=O)OC1)[C@@]1(C)CC[C@H]2[C@@H](CC[C@@H]3C[C@@H](O)CC[C@@]32C)[C@@H]1O` [Comp. I-e, 3β,14β-dihydroxy-14,15-seco-5β-card-20(22)-enolide], for which, on Na^+, K^+ -ATPase [1], the IC50 is 126 nM. In addition, the “Inhibitory activity -log IC50” value on Na^+, K^+ -ATPase [2] was 5.1.
`C[C@]12CC[C@H](O)C[C@H]1CC[C@H]1C(=O)[C@@](C)([C@H](C/C=N/NC(=N)N)C3=CC(=O)OC3)CC[C@@H]12` [Comp. I-m, 3β-hydroxy-14-oxo-14,15-seco-5β-card-20(22)enolide-15-(E)-(guanidinoimino)] showed an IC50 at Na^+, K^+ -ATPase [1] of 3160 nM. The “Inhibitory activity -log IC50” value at Na^+, K^+ -ATPase [2] amounted to 4.1.
`CC[C@H](C1=CC(=O)OC1)[C@@]1(C)CC[C@H]2[C@@H](CC[C@@H]3C[C@@H](O)CC[C@@]32C)C1=O` [Comp. I-d, 3β-hydroxy-14-oxo-14,15-seco-5β-card-20(22)-enolide] gave an IC50 on Na^+, K^+ -ATPase [1] of 200 nM. Also, in assay [3], the SBP was 156+/-4.6 mm Hg and the HR is recorded as 383+/-11.4 beats/min. In addition, on Na^+, K^+ -ATPase [2], the “Inhibitory activity -log IC50” value is recorded as 5.6.
For the compound `C[C@]12CC[C@H](O)C[C@H]1CC[C@H]1[C@H](O)[C@@](C)([C@H](CC#N)C3=CC(=O)OC3)CC[C@@H]12` [Comp. I-h, 3β,14β-dihydroxy-14,15-seco-5β-card-20(22)-enolide-15-nitrile], in assay [3], the SBP is given as 160+/-7.8 mm Hg and the HR is 377+/-10.5 beats/min.
As for `CC[C@H](c1ccoc1)[C@@]1(C)CC[C@H]2[C@@H](CC[C@@H]3C[C@@H](O)CC[C@@]32C)C1=O` [Comp. I-c, 17β-(3-furyl)-14-oxo-14,15-seco-5β-androstan-3β-ol], the IC50 at Na^+, K^+ -ATPase [1] (purified Na^+, K^+ -ATPase receptor, read-out: Binding ^3 H-oubain displacement -log IC50 (converted)) was 6310 nM. Moreover, the “Inhibitory activity -log IC50” value on Na^+, K^+ -ATPase [2] stood at 4.3.

The term IC50 denotes the concentration that inhibits the measured activity by half.
